# Experimental data taken from paper PMC5341858, “Molecular regulation of apoptotic machinery and lipid metabolism by mTORC1/mTORC2 dual inhibitors in preclinical models of HER2+/PIK3CAmut breast cancer” (Oncotarget, 2016).
# Experiments:
# Experiment in all cases: KINOMEscan binding assay
# [1] = target: T1, ABL1 (T315I)- phosphorylated (Homo sapiens, UniProt P00519, T315I); conditions: 1000 nM, percent control relative to vehicle
# T1 construct: purchased DiscoveRx KINOMEscan
# Text: (§1) IC50 values were generated using Graphpad PRISM 5 software.
# ABL1-nonphosphorylated = target: T2, ABL1-nonphosphorylated (Homo sapiens, UniProt P00519); conditions: 1000 nM, percent control relative to vehicle
# T2 construct: purchased DiscoveRx KINOMEscan
# Text: as §1
# ACVR1B = target: T3, ACVR1B (Homo sapiens, UniProt P36896); conditions: 1000 nM, percent control relative to vehicle
# T3 construct: purchased DiscoveRx KINOMEscan
# Text: as §1
# ADCK3 = target: T4, ADCK3 (Homo sapiens, UniProt Q8NI60); conditions: 1000 nM, percent control relative to vehicle
# T4 construct: purchased DiscoveRx KINOMEscan
# Text: as §1
# AXL = target: T5, AXL (Homo sapiens, UniProt P30530); conditions: 1000 nM, percent control relative to vehicle
# T5 construct: purchased DiscoveRx KINOMEscan
# Text: as §1
# BRAF (V600E) = target: T6, BRAF (V600E) (Homo sapiens, UniProt P15056, V600E); conditions: 1000 nM, percent control relative to vehicle
# T6 construct: purchased DiscoveRx KINOMEscan
# Text: as §1
# BTK = target: T7, BTK (Homo sapiens, UniProt Q06187); conditions: 1000 nM, percent control relative to vehicle
# T7 construct: purchased DiscoveRx KINOMEscan
# Text: as §1
# CDK2 = target: T8, CDK2 (Homo sapiens, UniProt P24941); conditions: 1000 nM, percent control relative to vehicle
# T8 construct: purchased DiscoveRx KINOMEscan
# Text: as §1
# CDK9 = target: T9, CDK9 (Homo sapiens, UniProt P50750); conditions: 1000 nM, percent control relative to vehicle
# T9 construct: purchased DiscoveRx KINOMEscan
# Text: as §1
# CSF1R = target: T10, CSF1R (Homo sapiens, UniProt P07333); conditions: 1000 nM, percent control relative to vehicle
# T10 construct: purchased DiscoveRx KINOMEscan
# Text: as §1
# CSNK1G2 = target: T11, CSNK1G2 (Homo sapiens, UniProt P78368); conditions: 1000 nM, percent control relative to vehicle
# T11 construct: purchased DiscoveRx KINOMEscan
# Text: as §1
# EGFR = target: T12, EGFR (Homo sapiens, UniProt P00533); conditions: 1000 nM, percent control relative to vehicle
# T12 construct: purchased DiscoveRx KINOMEscan
# Text: as §1
# EGFR (L858R) = target: T13, EGFR (L858R) (Homo sapiens, UniProt P00533, L858R); conditions: 1000 nM, percent control relative to vehicle
# T13 construct: purchased DiscoveRx KINOMEscan
# Text: as §1
# ERBB2 = target: T14, ERBB2 (Homo sapiens, UniProt P04626); conditions: 1000 nM, percent control relative to vehicle
# T14 construct: purchased DiscoveRx KINOMEscan
# Text: as §1
# FGFR3 = target: T15, FGFR3 (Homo sapiens, UniProt P22607); conditions: 1000 nM, percent control relative to vehicle
# T15 construct: purchased DiscoveRx KINOMEscan
# Text: as §1
# IKK-alpha = target: T16, IKK-alpha (Homo sapiens, UniProt O15111); conditions: 1000 nM, percent control relative to vehicle
# T16 construct: purchased DiscoveRx KINOMEscan
# Text: as §1
# [2] = target: T17, JAK2 (JH1domain-catalytic) (Homo sapiens, UniProt O60674); conditions: 1000 nM, percent control relative to vehicle
# T17 construct: JAK2 (JH1domain-catalytic); purchased DiscoveRx KINOMEscan
# Text: as §1
# [3] = target: T18, JAK3 (JH1domain-catalytic) (Homo sapiens, UniProt P52333); conditions: 1000 nM, percent control relative to vehicle
# T18 construct: JAK3 (JH1domain-catalytic); purchased DiscoveRx KINOMEscan
# Text: as §1
# JNK2 = target: T19, JNK2 (Homo sapiens, UniProt P45984); conditions: 1000 nM, percent control relative to vehicle
# T19 construct: purchased DiscoveRx KINOMEscan
# Text: as §1
# KIT = target: T20, KIT (Homo sapiens, UniProt P10721); conditions: 1000 nM, percent control relative to vehicle
# T20 construct: purchased DiscoveRx KINOMEscan
# Text: as §1
# LKB1 = target: T21, LKB1 (Homo sapiens, UniProt Q15831); conditions: 1000 nM, percent control relative to vehicle
# T21 construct: purchased DiscoveRx KINOMEscan
# Text: as §1
# MKNK1 = target: T22, MKNK1 (Homo sapiens, UniProt Q9BUB5); conditions: 1000 nM, percent control relative to vehicle
# T22 construct: purchased DiscoveRx KINOMEscan
# Text: as §1
# MKNK2 = target: T23, MKNK2 (Homo sapiens, UniProt Q9HBH9); conditions: 1000 nM, percent control relative to vehicle
# T23 construct: purchased DiscoveRx KINOMEscan
# Text: as §1
# MLK1 = target: T24, MLK1 (Homo sapiens, UniProt P80192); conditions: 1000 nM, percent control relative to vehicle
# T24 construct: purchased DiscoveRx KINOMEscan
# Text: as §1
# PAK1 = target: T25, PAK1 (Homo sapiens, UniProt Q13153); conditions: 1000 nM, percent control relative to vehicle
# T25 construct: purchased DiscoveRx KINOMEscan
# Text: as §1
# PCTK1 = target: T26, PCTK1 (Homo sapiens, UniProt Q00536); conditions: 1000 nM, percent control relative to vehicle
# T26 construct: purchased DiscoveRx KINOMEscan
# Text: as §1
# PDGFRB = target: T27, PDGFRB (Homo sapiens, UniProt P09619); conditions: 1000 nM, percent control relative to vehicle
# T27 construct: purchased DiscoveRx KINOMEscan
# Text: as §1
# PDPK1 = target: T28, PDPK1 (Homo sapiens, UniProt O15530); conditions: 1000 nM, percent control relative to vehicle
# T28 construct: purchased DiscoveRx KINOMEscan
# Text: as §1
# PIK3CA = PIK3CA (Homo sapiens, UniProt P42336)
# Text: as §1
# PIM1 = target: T29, PIM1 (Homo sapiens, UniProt P11309); conditions: 1000 nM, percent control relative to vehicle
# T29 construct: purchased DiscoveRx KINOMEscan
# Text: as §1
# PIM3 = target: T30, PIM3 (Homo sapiens, UniProt Q86V86); conditions: 1000 nM, percent control relative to vehicle
# T30 construct: purchased DiscoveRx KINOMEscan
# Text: as §1
# PLK4 = target: T31, PLK4 (Homo sapiens, UniProt O00444); conditions: 1000 nM, percent control relative to vehicle
# T31 construct: purchased DiscoveRx KINOMEscan
# Text: as §1
# RAF1 = target: T32, RAF1 (Homo sapiens, UniProt P04049); conditions: 1000 nM, percent control relative to vehicle
# T32 construct: purchased DiscoveRx KINOMEscan
# Text: as §1
# RET = target: T33, RET (Homo sapiens, UniProt P07949); conditions: 1000 nM, percent control relative to vehicle
# T33 construct: purchased DiscoveRx KINOMEscan
# Text: as §1
# RIOK2 = target: T34, RIOK2 (Homo sapiens, UniProt Q9BVS4); conditions: 1000 nM, percent control relative to vehicle
# T34 construct: purchased DiscoveRx KINOMEscan
# Text: as §1
# ROCK2 = target: T35, ROCK2 (Homo sapiens, UniProt O75116); conditions: 1000 nM, percent control relative to vehicle
# T35 construct: purchased DiscoveRx KINOMEscan
# Text: as §1
# [4] = target: T36, RSK2 (Kin.Dom.1-N- terminal) (Homo sapiens, UniProt P51812); conditions: 1000 nM, percent control relative to vehicle
# T36 construct: RSK2 (Kin.Dom.1-N- terminal); purchased DiscoveRx KINOMEscan
# Text: as §1
# SRPK3 = target: T37, SRPK3 (Homo sapiens, UniProt Q9UPE1); conditions: 1000 nM, percent control relative to vehicle
# T37 construct: purchased DiscoveRx KINOMEscan
# Text: as §1
# TGFBR1 = target: T38, TGFBR1 (Homo sapiens, UniProt P36897); conditions: 1000 nM, percent control relative to vehicle
# T38 construct: purchased DiscoveRx KINOMEscan
# Text: as §1
# TRKA = target: T39, TRKA (Homo sapiens, UniProt P04629); conditions: 1000 nM, percent control relative to vehicle
# T39 construct: purchased DiscoveRx KINOMEscan
# Text: as §1
# TSSK1B = target: T40, TSSK1B (Homo sapiens, UniProt Q9BXA7); conditions: 1000 nM, percent control relative to vehicle
# T40 construct: purchased DiscoveRx KINOMEscan
# Text: as §1
# ZAP70 = target: T41, ZAP70 (Homo sapiens, UniProt P43403); conditions: 1000 nM, percent control relative to vehicle
# T41 construct: purchased DiscoveRx KINOMEscan
# Text: as §1
# p38-alpha = target: T42, p38-alpha (Homo sapiens, UniProt Q16539); conditions: 1000 nM, percent control relative to vehicle
# T42 construct: purchased DiscoveRx KINOMEscan
# Text: as §1
# Sequence of PIK3CA (P42336 whole entry): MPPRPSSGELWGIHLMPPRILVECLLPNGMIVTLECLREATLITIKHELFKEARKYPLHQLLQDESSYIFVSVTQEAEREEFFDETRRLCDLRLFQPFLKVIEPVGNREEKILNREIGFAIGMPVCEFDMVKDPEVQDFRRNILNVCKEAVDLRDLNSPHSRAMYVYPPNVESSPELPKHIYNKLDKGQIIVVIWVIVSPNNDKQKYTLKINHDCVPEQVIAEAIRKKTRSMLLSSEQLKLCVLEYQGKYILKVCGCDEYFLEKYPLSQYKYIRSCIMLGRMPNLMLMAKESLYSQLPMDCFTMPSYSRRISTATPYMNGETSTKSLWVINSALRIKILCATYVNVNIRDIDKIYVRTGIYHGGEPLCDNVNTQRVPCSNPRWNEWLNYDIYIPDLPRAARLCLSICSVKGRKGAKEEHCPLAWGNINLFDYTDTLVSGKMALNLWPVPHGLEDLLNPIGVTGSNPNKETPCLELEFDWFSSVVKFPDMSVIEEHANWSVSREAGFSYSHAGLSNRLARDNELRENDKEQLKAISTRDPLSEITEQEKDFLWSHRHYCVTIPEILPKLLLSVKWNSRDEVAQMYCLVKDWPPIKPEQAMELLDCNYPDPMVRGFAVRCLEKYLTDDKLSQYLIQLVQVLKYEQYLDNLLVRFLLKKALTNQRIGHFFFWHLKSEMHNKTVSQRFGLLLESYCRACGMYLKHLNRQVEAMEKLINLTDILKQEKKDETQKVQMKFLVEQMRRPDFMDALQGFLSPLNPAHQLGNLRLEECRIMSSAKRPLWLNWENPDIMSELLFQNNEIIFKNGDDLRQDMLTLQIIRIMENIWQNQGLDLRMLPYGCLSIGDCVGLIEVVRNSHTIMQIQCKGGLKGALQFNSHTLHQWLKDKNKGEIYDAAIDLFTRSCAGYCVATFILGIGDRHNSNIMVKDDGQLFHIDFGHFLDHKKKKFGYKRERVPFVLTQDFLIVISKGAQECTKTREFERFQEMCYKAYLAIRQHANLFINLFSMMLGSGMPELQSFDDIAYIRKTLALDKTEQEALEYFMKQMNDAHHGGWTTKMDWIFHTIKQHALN
# T3 sequence (P36896 24-505): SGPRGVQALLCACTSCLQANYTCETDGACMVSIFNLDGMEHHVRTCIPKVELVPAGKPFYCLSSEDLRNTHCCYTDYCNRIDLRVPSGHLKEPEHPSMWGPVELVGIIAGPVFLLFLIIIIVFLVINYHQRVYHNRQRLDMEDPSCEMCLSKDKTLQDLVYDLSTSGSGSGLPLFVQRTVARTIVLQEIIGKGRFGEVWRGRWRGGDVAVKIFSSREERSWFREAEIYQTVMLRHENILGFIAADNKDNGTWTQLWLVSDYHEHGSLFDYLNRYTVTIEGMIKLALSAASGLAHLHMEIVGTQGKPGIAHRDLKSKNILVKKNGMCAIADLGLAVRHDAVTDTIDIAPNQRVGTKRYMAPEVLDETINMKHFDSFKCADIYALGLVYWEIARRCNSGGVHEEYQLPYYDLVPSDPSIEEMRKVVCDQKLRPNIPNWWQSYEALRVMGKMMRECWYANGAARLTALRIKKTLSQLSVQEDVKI
# T31 sequence (O00444 whole entry): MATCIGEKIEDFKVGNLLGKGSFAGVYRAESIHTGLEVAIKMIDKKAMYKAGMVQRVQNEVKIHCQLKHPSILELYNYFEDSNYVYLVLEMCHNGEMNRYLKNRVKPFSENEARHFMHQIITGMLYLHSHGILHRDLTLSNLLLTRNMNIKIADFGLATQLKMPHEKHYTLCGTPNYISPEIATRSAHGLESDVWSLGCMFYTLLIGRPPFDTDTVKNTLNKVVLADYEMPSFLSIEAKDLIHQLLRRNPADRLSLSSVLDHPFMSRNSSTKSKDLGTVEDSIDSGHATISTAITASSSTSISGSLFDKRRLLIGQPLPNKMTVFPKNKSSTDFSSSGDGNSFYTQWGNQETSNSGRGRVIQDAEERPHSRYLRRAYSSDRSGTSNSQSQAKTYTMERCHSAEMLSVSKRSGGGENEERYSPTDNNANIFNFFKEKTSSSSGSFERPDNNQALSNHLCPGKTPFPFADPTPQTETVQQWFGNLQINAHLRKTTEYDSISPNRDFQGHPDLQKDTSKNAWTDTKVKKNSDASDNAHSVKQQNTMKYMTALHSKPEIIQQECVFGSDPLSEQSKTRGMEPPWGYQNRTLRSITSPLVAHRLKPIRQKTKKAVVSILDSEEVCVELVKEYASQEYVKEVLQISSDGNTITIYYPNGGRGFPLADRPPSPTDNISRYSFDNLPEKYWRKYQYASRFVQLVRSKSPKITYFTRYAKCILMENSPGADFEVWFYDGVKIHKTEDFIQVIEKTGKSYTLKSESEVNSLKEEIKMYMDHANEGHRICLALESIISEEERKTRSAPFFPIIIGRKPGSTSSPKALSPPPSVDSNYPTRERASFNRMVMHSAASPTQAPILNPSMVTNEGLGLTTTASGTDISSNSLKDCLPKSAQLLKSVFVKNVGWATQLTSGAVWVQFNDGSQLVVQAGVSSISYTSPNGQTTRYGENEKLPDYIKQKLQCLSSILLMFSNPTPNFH
# T38 sequence (P36897 34-503): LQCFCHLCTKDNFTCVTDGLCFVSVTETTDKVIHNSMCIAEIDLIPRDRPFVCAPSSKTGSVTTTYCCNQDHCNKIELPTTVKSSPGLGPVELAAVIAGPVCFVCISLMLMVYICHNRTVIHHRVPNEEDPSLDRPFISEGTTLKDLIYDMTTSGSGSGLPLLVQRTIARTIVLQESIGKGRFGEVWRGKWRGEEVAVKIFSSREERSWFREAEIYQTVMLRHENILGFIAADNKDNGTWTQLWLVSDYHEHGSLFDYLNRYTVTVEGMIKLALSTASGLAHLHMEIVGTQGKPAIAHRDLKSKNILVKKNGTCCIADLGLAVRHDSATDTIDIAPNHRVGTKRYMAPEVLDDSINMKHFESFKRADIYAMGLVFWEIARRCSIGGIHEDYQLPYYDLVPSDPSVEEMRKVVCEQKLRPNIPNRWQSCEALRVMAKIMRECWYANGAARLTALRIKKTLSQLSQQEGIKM
# T5 sequence (P30530 26-894): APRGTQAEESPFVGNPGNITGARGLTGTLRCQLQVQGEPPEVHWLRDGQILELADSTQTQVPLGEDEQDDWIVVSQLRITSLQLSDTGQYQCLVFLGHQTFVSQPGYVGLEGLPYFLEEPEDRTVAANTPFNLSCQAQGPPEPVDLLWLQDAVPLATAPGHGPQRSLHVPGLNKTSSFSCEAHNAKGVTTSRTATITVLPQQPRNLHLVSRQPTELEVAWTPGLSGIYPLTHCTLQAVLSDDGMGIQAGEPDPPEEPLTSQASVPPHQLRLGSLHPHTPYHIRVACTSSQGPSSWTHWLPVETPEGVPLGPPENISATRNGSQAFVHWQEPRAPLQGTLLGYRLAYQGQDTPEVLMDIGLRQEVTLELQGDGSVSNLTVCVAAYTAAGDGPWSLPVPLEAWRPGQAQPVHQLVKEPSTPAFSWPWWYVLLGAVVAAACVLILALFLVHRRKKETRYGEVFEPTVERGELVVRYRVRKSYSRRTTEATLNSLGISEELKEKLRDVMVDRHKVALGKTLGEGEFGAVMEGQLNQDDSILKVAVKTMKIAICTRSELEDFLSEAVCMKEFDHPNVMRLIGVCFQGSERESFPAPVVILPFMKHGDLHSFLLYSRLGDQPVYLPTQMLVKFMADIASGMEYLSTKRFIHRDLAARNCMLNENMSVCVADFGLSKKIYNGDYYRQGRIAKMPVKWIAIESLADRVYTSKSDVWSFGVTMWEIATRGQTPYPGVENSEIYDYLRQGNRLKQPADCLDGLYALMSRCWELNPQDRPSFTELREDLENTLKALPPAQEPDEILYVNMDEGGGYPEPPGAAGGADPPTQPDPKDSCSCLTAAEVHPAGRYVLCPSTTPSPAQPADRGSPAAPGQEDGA
# T14 sequence (P04626 23-1255): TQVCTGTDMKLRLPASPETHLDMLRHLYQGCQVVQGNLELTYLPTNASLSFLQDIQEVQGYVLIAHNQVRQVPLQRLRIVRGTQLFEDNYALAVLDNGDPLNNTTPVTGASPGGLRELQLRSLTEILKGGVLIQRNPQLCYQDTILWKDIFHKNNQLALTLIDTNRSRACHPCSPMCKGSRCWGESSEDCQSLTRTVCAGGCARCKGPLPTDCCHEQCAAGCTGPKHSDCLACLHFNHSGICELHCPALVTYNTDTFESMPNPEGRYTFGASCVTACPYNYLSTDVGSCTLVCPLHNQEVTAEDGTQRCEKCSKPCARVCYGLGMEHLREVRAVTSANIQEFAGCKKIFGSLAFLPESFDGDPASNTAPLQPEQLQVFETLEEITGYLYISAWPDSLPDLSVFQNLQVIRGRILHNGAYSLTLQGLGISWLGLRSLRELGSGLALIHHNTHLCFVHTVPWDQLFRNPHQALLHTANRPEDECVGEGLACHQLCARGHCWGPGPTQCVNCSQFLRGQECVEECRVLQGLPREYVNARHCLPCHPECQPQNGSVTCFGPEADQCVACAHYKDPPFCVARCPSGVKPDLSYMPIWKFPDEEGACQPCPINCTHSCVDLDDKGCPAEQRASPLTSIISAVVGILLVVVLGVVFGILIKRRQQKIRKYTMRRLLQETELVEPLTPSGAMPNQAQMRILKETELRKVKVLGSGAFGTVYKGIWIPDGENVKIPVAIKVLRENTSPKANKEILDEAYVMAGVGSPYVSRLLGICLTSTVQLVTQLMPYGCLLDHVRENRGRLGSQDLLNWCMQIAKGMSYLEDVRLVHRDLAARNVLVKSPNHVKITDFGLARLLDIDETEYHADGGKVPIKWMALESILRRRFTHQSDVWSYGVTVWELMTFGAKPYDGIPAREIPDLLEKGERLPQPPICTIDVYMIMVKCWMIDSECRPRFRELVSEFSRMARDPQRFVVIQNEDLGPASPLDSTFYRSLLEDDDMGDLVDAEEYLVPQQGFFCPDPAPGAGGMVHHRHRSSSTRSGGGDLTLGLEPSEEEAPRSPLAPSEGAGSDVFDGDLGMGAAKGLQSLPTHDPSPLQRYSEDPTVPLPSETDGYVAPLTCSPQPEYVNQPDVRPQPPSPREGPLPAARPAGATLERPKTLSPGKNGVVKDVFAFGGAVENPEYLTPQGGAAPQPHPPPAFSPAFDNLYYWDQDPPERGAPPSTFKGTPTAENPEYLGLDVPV
structure (smiles),measurement,setting,value
CNC(=O)c1cccc(-c2ccc3c(N4C5CCC4COC5)nc(N4CCOC[C@@H]4C)nc3n2)c1 [MTI-31],% Control,[1],76%
same,% Control,ABL1-nonphosphorylated,52%
same,% Control,ACVR1B,86%
same,% Control,ADCK3,97%
same,% Control,AXL,97%
same,% Control,BRAF (V600E),93%
same,% Control,BTK,68%
same,% Control,CDK2,84%
same,% Control,CDK9,90%
same,% Control,CSF1R,99%
same,% Control,CSNK1G2,100%
same,% Control,EGFR,94%
same,% Control,EGFR (L858R),100%
same,% Control,ERBB2,97%
same,% Control,FGFR3,92%
same,% Control,IKK-alpha,82%
same,% Control,[2],88%
same,% Control,[3],82%
same,% Control,JNK2,96%
same,% Control,KIT,100%
same,% Control,LKB1,100%
same,% Control,MKNK1,90%
same,% Control,MKNK2,100%
same,% Control,MLK1,100%
same,% Control,PAK1,100%
same,% Control,PCTK1,87%
same,% Control,PDGFRB,100%
same,% Control,PDPK1,97%
same,Kd,PIK3CA,> 1000 nM
same,% Control,"PIK3CA; 1000 nM, percent control relative to vehicle",100%
same,% Control,PIM1,100%
same,% Control,PIM3,100%
same,% Control,PLK4,87%
same,% Control,RAF1,82%
same,% Control,RET,100%
same,% Control,RIOK2,80%
same,% Control,ROCK2,73%
same,% Control,[4],78%
same,% Control,SRPK3,90%
same,% Control,TGFBR1,93%
same,% Control,TRKA,84%
same,% Control,TSSK1B,100%
same,% Control,ZAP70,72%
same,% Control,p38-alpha,100%
